Reference: patent US20260356851A1, “TRICYCLIC COMPOUNDS AND USES THEREOF” (HUTCHMED LIMITED, priority 2023, published 2026)

How the values were obtained:
Format in all cases: cell-based
[1] = target: T1, pERK1/2 (Thr202/Tyr204), NCI-1H358 (KRAS G12C) (Homo sapiens, UniProt P01116, G12C); experiment: Assay of intracellular pERK1/2 (Thr202/Tyr204) phosphorylation in NCI-H358 cells (KRAS G12C); conditions: pERK1/2, 2 days, read-out: NCI-H358 (KRAS G12C) IC50
T1 construct: pERK1/2 HTRF read-out
Procedure, shortened: (§1)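 Cells (10000-12000/well) exposed to 3-fold compound dilutions for 2 days at 37 °C, then lysed; pERK1/2 (Thr202/Tyr204) measured by HTRF with d2 and cryptate antibodies, 665/615 nm ratio.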

[2] = target: T2, pERK1/2 (Thr202/Tyr204), NCI-1H441 (KRAS G12V) (Homo sapiens, UniProt P01116, G12V); experiment: Assay of intracellular pERK1/2 (Thr202/Tyr204) phosphorylation in NCI-H441 cells (KRAS G12V); conditions: pERK1/2, 2 days, read-out: NCI-H441 (KRAS G12V) IC50
T2 construct: pERK1/2 HTRF read-out
Procedure, shortened: as §1

[3] = target: T3, pERK1/2 (Thr202/Tyr204), PANC-1 (KRAS G121D) (Homo sapiens, UniProt P01116, G12D); experiment: Assay of intracellular pERK1/2 (Thr202/Tyr204) phosphorylation in PANC-1 cells (KRAS G12D); conditions: pERK1/2, 2 days, read-out: PANC-1 (KRAS G12D) IC50
T3 construct: pERK1/2 HTRF read-out
Procedure, shortened: as §1

T3 sequence (P01116 1-188 isoform P01116-2 G12D): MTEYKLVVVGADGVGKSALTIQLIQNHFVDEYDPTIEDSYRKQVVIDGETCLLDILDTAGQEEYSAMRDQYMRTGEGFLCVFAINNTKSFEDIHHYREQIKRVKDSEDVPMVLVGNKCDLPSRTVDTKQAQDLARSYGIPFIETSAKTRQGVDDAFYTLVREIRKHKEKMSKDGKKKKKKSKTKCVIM
T1 sequence (P01116 1-188 isoform P01116-2 G12C): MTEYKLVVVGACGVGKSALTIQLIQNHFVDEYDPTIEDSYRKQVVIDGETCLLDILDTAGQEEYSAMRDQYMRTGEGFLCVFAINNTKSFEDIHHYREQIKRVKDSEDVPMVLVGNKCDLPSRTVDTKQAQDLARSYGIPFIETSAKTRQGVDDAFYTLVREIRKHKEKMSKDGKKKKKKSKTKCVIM
T2 sequence (P01116 1-188 isoform P01116-2 G12V): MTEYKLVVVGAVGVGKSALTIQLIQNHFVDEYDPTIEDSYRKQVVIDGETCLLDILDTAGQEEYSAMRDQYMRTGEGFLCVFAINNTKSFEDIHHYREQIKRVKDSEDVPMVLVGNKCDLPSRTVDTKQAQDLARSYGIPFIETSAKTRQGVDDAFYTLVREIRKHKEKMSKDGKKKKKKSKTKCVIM

SMILES | IC50 [1] [nM] | IC50 [2] [nM] | IC50 [3] [nM]
C#Cc1c(F)ccc2cc(O)cc(-c3nc4c5c(nc(OC[C@@]67CCCN6C[C@H](F)C7)nc5c3F)N(C(C)c3cccnc3N)[C@@H](C)CO4)c12 (single isomer, unassigned) [Compound 274, 4-((S)-10-((R or S)-1-(2-aminopyridin-3-yl)ethyl)-4-fluoro-2-(((2R,7aS)-2-fluorotetrahydro-1H-pyrrolizin-7a(5H)-yl)methoxy)-9-methyl-9,10-dihydro-8H-7-oxa-1,3,6,10-tetraazacyclohepta[de]naphthalen-5-yl)-5-ethynyl-6-fluoronaphthalen-2-ol] | 5 | 8 | 13
CC(c1cccnc1N)N1c2nc(OC[C@@]34CCCN3C[C@H](F)C4)nc3c(F)c(-c4cc(O)cc5ccc(F)c(F)c45)nc(c23)OC[C@@H]1C (single isomer, unassigned) [Compound 275, 4-((S)-10-((R or S)-1-(2-aminopyridin-3-yl)ethyl)-4-fluoro-2-(((2R,7aS)-2-fluorotetrahydro-1H-pyrrolizin-7a(5H)-yl)methoxy)-9-methyl-9,10-dihydro-8H-7-oxa-1,3,6,10-tetraazacyclohepta[de]naphthalen-5-yl)-5,6-difluoronaphthalen-2-ol] | 0.4 | 0.8 | 0.4
CC(c1cccnc1N)N1c2nc(OC[C@@]34CCCN3C[C@H](F)C4)nc3c(F)c(-c4cc(O)cc5ccc(F)c(F)c45)nc(c23)OC[C@@H]1C (single isomer, unassigned) [Compound 276, 4-((S)-10-((R or S)-1-(2-aminopyridin-3-yl)ethyl)-4-fluoro-2-(((2R,7aS)-2-fluorotetrahydro-1H-pyrrolizin-7a(5H)-yl)methoxy)-9-methyl-9,10-dihydro-8H-7-oxa-1,3,6,10-tetraazacyclohepta[de]naphthalen-5-yl)-5,6-difluoronaphthalen-2-ol] | 77 | > 100 | > 100
Cc1c(F)c(N)cc(-c2nc3c4c(nc(OC[C@@H]5C[C@@H](F)CN5C)nc4c2F)N(C(C)c2cccnc2N)[C@@H](C)CO3)c1C(F)(F)F (single isomer, unassigned) [Compound 277, 3-((R or S)-1-((S)-5-(5-amino-4-fluoro-3-methyl-2-(trifluoromethyl)phenyl)-4-fluoro-2-(((2S,4R)-4-fluoro-1-methylpyrrolidin-2-yl)methoxy)-9-methyl-8,9-dihydro-10H-7-oxa-1,3,6,10-tetraazacyclohepta[de]naphthalen-10-yl)ethyl)pyridin-2-amine] | 93 | > 100 | > 100
Cc1c(F)c(N)cc(-c2nc3c4c(nc(OC[C@@H]5C[C@@H](F)CN5C)nc4c2F)N(C(C)c2cccnc2N)[C@@H](C)CO3)c1C(F)(F)F (single isomer, unassigned) [Compound 278, 3-((R or S)-1-((S)-5-(5-amino-4-fluoro-3-methyl-2-(trifluoromethyl)phenyl)-4-fluoro-2-(((2S,4R)-4-fluoro-1-methylpyrrolidin-2-yl)methoxy)-9-methyl-8,9-dihydro-10H-7-oxa-1,3,6,10-tetraazacyclohepta[de]naphthalen-10-yl)ethyl)pyridin-2-amine] | 0.2 | 0.6 | 2
CCc1c(F)ccc2cc(O)cc(-c3nc4c5c(nc(OC[C@@]67CCCN6C[C@H](F)C7)nc5c3F)N(C(C)c3cccnc3N)[C@@H](C)CO4)c12 (single isomer, unassigned) [Compound 279, 4-((S)-10-((R or S)-1-(2-aminopyridin-3-yl)ethyl)-4-fluoro-2-(((2R,7aS)-2-fluorotetrahydro-1H-pyrrolizin-7a(5H)-yl)methoxy)-9-methyl-9,10-dihydro-8H-7-oxa-1,3,6,10-tetraazacyclohepta[de]naphthalen-5-yl)-5-ethyl-6-fluoronaphthalen-2-ol] | 0.3 | 0.4 | 0.2
CCc1c(F)ccc2cc(O)cc(-c3nc4c5c(nc(OC[C@@]67CCCN6C[C@H](F)C7)nc5c3F)N(C(C)c3cccnc3N)[C@@H](C)CO4)c12 (single isomer, unassigned) [Compound 280, 4-((S)-10-((R or S)-1-(2-aminopyridin-3-yl)ethyl)-4-fluoro-2-(((2R,7aS)-2-fluorotetrahydro-1H-pyrrolizin-7a(5H)-yl)methoxy)-9-methyl-9,10-dihydro-8H-7-oxa-1,3,6,10-tetraazacyclohepta[de]naphthalen-5-yl)-5-ethyl-6-fluoronaphthalen-2-ol] | 6 | 11 | 5
Cc1cc(N)cc(-c2nc3c4c(nc(OC[C@@H]5C[C@@H](F)CN5C)nc4c2F)N(C(C)c2cccnc2N)[C@@H](C)CO3)c1C(F)(F)F (single isomer, unassigned) [Compound 282, 3-((R or S)-1-((S)-5-(5-amino-3-methyl-2-(trifluoromethyl)phenyl)-4-fluoro-2-(((2S,4R)-4-fluoro-1-methylpyrrolidin-2-yl)methoxy)-9-methyl-8,9-dihydro-10H-7-oxa-1,3,6,10-tetraazacyclohepta[de]naphthalen-10-yl)ethyl)pyridin-2-amine] | 0.2 | 0.4 | 3
Cc1cc(N)cc(-c2nc3c4c(nc(OC[C@@H]5C[C@@H](F)CN5C)nc4c2F)N(C(C)c2cccnc2N)[C@@H](C)CO3)c1C(F)(F)F (single isomer, unassigned) [Compound 283, 3-((R or S)-1-((S)-5-(5-amino-3-methyl-2-(trifluoromethyl)phenyl)-4-fluoro-2-(((2S,4R)-4-fluoro-1-methylpyrrolidin-2-yl)methoxy)-9-methyl-8,9-dihydro-10H-7-oxa-1,3,6,10-tetraazacyclohepta[de]naphthalen-10-yl)ethyl)pyridin-2-amine] | 55 | > 100 | > 100
C#Cc1c(F)ccc2cc(O)cc(-c3nc4c5c(nc(OC[C@@H]6C[C@@H](F)CN6C)nc5c3F)N(C(C)c3cccnc3N)[C@@H](C)CO4)c12 (single isomer, unassigned) [Compound 284, 4-((S)-10-((R or S)-1-(2-aminopyridin-3-yl)ethyl)-4-fluoro-2-(((2S,4R)-4-fluoro-1-methylpyrrolidin-2-yl)methoxy)-9-methyl-9,10-dihydro-8H-7-oxa-1,3,6,10-tetraazacyclohepta[de]naphthalen-5-yl)-5-ethynyl-6-fluoronaphthalen-2-ol] | 0.2 | 0.5 | 0.3
C#Cc1c(F)ccc2cc(O)cc(-c3nc4c5c(nc(OC[C@@H]6C[C@@H](F)CN6C)nc5c3F)N(C(C)c3cccnc3N)[C@@H](C)CO4)c12 (single isomer, unassigned) [Compound 285, 4-((S)-10-((R or S)-1-(2-aminopyridin-3-yl)ethyl)-4-fluoro-2-(((2S,4R)-4-fluoro-1-methylpyrrolidin-2-yl)methoxy)-9-methyl-9,10-dihydro-8H-7-oxa-1,3,6,10-tetraazacyclohepta[de]naphthalen-5-yl)-5-ethynyl-6-fluoronaphthalen-2-ol] | 27 | 17 | 86
C[C@H](c1cccnc1N)N1c2nc(OC[C@@H]3C[C@@H](F)CN3C)nc3c(F)c(-c4cc(N)cc(Cl)c4C(F)(F)F)nc(c23)OC[C@@H]1C (single isomer, unassigned) [Compound 286, 3-((R or S)-1-((S)-5-(5-amino-3-chloro-2-(trifluoromethyl)phenyl)-4-fluoro-2-(((2S,4R)-4-fluoro-1-methylpyrrolidin-2-yl)methoxy)-9-methyl-8,9-dihydro-1H-7-oxa-1,3,6,10-tetraazacyclohepta[de]naphthalen-10-yl)ethyl)pyridin-2-amine] | 57 | > 100 | > 100
CC(c1cccnc1N)N1c2nc(OC[C@@H]3C[C@@H](F)CN3C)nc3c(F)c(-c4cc(N)cc(Cl)c4C(F)(F)F)nc(c23)OC[C@@H]1C (single isomer, unassigned) [Compound 287, 3-((R or S)-1-((S)-5-(5-amino-3-chloro-2-(trifluoromethyl)phenyl)-4-fluoro-2-(((2S,4R)-4-fluoro-1-methylpyrrolidin-2-yl)methoxy)-9-methyl-8,9-dihydro-10H-7-oxa-1,3,6,10-tetraazacyclohepta[de]naphthalen-10-yl)ethyl)pyridin-2-amine] | 0.2 | 0.4 | 2
CC(c1cccnc1N)N1c2nc(OC[C@@]34CCCN3C[C@H](F)C4)nc3c(F)c(-c4c(C(F)(F)F)c(Cl)cc5[nH]ncc45)nc(c23)OC[C@@H]1C (single isomer, unassigned) [Compound 330] | 0.4 | 0.5 | 0.3
CC(c1cccnc1N)N1c2nc(OC[C@@]34CCCN3C[C@H](F)C4)nc3c(F)c(-c4c(Cl)c(C(F)(F)F)cc5[nH]ncc45)nc(c23)OC[C@@H]1C (single isomer, unassigned) [Compound 361] | 2 | 5 | 34
CC(c1cccnc1N)N1c2nc(OC[C@@]34CCCN3C[C@H](F)C4)nc3c(F)c(-c4c5c(cc6[nH]ncc46)CCC5=O)nc(c23)OC[C@@H]1C (single isomer, unassigned) [Compound 373] | 14 | 25 | 41
Cc1c(C(F)(F)F)c(-c2nc3c4c(nc(OC[C@@]56CCCN5C[C@H](F)C6)nc4c2F)N(C(C)c2cccnc2N)[C@@H](C)CO3)c2c(Cl)n[nH]c2c1F (single isomer, unassigned) [Compound 382] | 3 | 5 | 2
